Measurements published in patent US20260042764A1, “COMPOSITIONS AND METHODS FOR INHIBITION OF KRAS” (TheRas, Inc., priority 2022, published 2026).

Experiments:
[1] = biological target: T1, Avi-KRAS G12R (1-169) GppNHp/RAF1 RBD-3xFLAG (52-151) (Homo sapiens, UniProt P01116, G12R); assay: Raf1-KRAS G12R-GppNHP disruption HTRF assay (Biological Example 1); type: binding
T1 construct: Avi-KRAS G12R (1-169)
Summary of the method: (§1)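 Percent activity versus DMSO (100%) was derived from HTRF signal after KRAS–RAF1 RBD protein mix was incubated 1 h at room temperature with shaking and detection reagents were added for a further 1 h.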

[2] = biological target: T2, Avi-KRAS WT (1-169) GppNHp/RAF1 RBD-3xFLAG (52-151) (Homo sapiens, UniProt P01116); assay: Raf1-KRAS WT-GppNHP disruption HTRF assay (Biological Example 1); type: binding
T2 construct: Avi-KRAS WT (1-169)
T2 sequence (P01116 1-169 isoform P01116-2): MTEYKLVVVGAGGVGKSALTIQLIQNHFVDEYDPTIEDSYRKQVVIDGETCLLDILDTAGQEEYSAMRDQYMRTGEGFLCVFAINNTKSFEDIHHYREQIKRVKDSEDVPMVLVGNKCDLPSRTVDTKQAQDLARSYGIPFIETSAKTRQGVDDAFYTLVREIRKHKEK
Summary of the method: as §1

[3] = biological target: T3, Avi-KRAS G12D (1-169) GppNHp/RAF1 RBD-3xFLAG (52-151) (Homo sapiens, UniProt P01116, G12D); assay: Raf1-KRAS G12D-GppNHP disruption HTRF assay (Biological Example 1); type: binding
T3 construct: Avi-KRAS G12D (1-169)
T3 sequence (P01116 1-169 isoform P01116-2 G12D): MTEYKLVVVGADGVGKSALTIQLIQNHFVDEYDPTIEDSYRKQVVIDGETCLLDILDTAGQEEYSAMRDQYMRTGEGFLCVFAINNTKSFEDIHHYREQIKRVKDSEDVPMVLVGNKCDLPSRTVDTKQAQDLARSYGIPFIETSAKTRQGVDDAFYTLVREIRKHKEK
Summary of the method: as §1

SW620 cells (KRAS G12V) = assay: Cell-based pERK HTRF assay in SW620 cell (Biological Example 4); details: Homo sapiens, SW-620, SW620 (KRAS G12V) cells, pERK HTRF
Summary of the method: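 Read-out: HTRF pERK signal (excitation 320 nm, emission 615 nm) from lysates of SW620 cells after 4 h compound exposure. Dose range was 9 points, half-log steps from 1 μM, in 0.25% DMSO; antibody incubation ran 4–24 h at room temperature.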

GP2d cells (KRAS G12D) = assay: Cell-based pERK HTRF assay in GP2d cell (Biological Example 2); details: GP2d, GP2d (KRAS G12D) cells, pERK HTRF
Summary of the method: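 Treatment with test compounds lasted one hour in DMEM containing 10% FBS, with DMSO held at 0.25%. Dilution series: 9 points, half-log spacing, highest 1 μM or 100 nM. Lysates were incubated 4–24 h at room temperature with antibody mix, then HTRF was read at 320 nm excitation.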

[4] = biological target: T4, Avi-KRAS G12V (1-169) GppNHp/RAF1 RBD-3xFLAG (52-151) (Homo sapiens, UniProt P01116, G12V); assay: Raf1-KRAS G12V-GppNHP disruption HTRF assay (Biological Example 1); type: binding
T4 construct: Avi-KRAS G12V (1-169)
T4 sequence (P01116 1-169 isoform P01116-2 G12V): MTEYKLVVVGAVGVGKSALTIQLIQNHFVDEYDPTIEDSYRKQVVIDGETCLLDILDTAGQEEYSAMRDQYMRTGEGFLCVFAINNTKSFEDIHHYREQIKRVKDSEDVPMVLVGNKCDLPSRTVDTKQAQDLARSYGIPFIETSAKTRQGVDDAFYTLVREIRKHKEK
Summary of the method: as §1

[5] = KRAS G12R, GppNHp-loaded, class symbols
[6] = KRAS WT, GppNHp-loaded, class symbols
[7] = KRAS G12D, GppNHp-loaded, class symbols
[8] = KRAS G12V, GppNHp-loaded, class symbols
[9] = KRAS G12R, GppNHp-loaded, Table 11
[10] = KRAS WT, GppNHp-loaded, Table 11
[11] = KRAS G12D, GppNHp-loaded, Table 11
[12] = KRAS G12V, GppNHp-loaded, Table 11

T1 sequence (P01116 1-169 isoform P01116-2 G12R): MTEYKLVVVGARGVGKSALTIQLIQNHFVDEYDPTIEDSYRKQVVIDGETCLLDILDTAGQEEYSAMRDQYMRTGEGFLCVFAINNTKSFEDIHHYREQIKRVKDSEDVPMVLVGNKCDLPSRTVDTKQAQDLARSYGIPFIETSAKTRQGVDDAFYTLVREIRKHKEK

Compound	IC50 ([1]; KRAS G12R-GppNHp/RAF1 RBD HTRF) [µM]	IC50 ([2]; KRAS WT-GppNHp/RAF1 RBD HTRF) [µM]	IC50 ([3]; KRAS G12D-GppNHp/RAF1 RBD HTRF) [µM]	IC50 (SW620 cells (KRAS G12V)) [µM]	IC50 (GP2d cells (KRAS G12D)) [µM]	IC50 ([4]; KRAS G12V-GppNHp/RAF1 RBD HTRF) [µM]	IC50 [1, 5] [µM]	IC50 [2, 6] [µM]	IC50 [3, 7] [µM]	IC50 (SW620 cells (KRAS G12V); class symbols) [µM]	IC50 (GP2d cells (KRAS G12D); class symbols) [µM]	IC50 [4, 8] [µM]	IC50 [1, 9] [µM]	IC50 [2, 10] [µM]	IC50 [3, 11] [µM]	IC50 [4, 12] [µM]
COC(=O)N1CC[C@@H](N(C)c2nc(OC[C@@]34CCCN3C[C@H](F)C4)nc3c(F)c(-c4ccc(F)c5sc(N)c(C#N)c45)c(C(F)(F)F)cc23)[C@H]1C [Compound 410]	0.1 to 1	0.1 to 1	0.1 to 1	< 0.1	< 0.1	0.1 to 1										
CCN(c1nc(OC[C@@]23CCCN2C[C@H](F)C3)nc2c(F)c(-c3ccc(F)c4sc(N)c(C#N)c34)c(C(F)(F)F)cc12)[C@@H]1CCN(C(=O)[C@H](C)OC)[C@@H]1C (atropisomer, axis not shown) [Compound 789]							< 0.1	< 0.1	< 0.1	< 0.1	< 0.1	0.1 to 1				
CCN(c1nc(OC[C@@]23CCCN2C[C@H](F)C3)nc2c(F)c(-c3ccc(F)c4sc(N)c(C#N)c34)c(C(F)(F)F)cc12)[C@H]1CCN(C(=O)N2CC3CC(C2)O3)C1 [Compound 651]							< 0.1	< 0.1	< 0.1	< 0.1	< 0.1	< 0.1				
CN(C)C(=O)c1cc2n(n1)CCCN(c1nc(OC[C@@]34CCCN3C[C@H](F)C4)nc3c(F)c(-c4ccc(F)c5sc(N)c(C#N)c45)c(C(F)(F)F)cc13)C2 [Compound 256]				< 0.1	< 0.1								0.1 to 1	0.1 to 1	< 0.1	0.1 to 1
CN1CC(F)(F)C[C@H]1COc1nc(N2CC3CC(C2)O3)c2cc(C(F)(F)F)c(-c3ccc(F)c4sc(N)c(C#N)c34)c(F)c2n1 [Compound 498]	> 10	> 10	> 10	> 1	> 1	> 10										
CN(c1nc(OC[C@@]23CCCN2C[C@H](F)C3)nc2c(F)c(-c3ccc(F)c4sc(N)c(C#N)c34)c(C(F)(F)F)cc12)C1CCS(=O)(=O)CC1 [Compound 330]	1 to 10	0.1 to 1	0.1 to 1	0.1 to 1	< 0.1	1 to 10										
N#Cc1c(N)sc2c(F)ccc(-c3c(C(F)(F)F)cc4c(N5CC(F)C5)nc(OC[C@@]56CCCN5C[C@H](F)C6)nc4c3F)c12 [Compound 222]				< 0.1	< 0.1								0.1 to 1	0.1 to 1	0.1 to 1	0.1 to 1
[2H][C@]1(N(CC)c2nc(OC[C@@]34CCCN3C[C@H](F)C4)nc3c(F)c(-c4ccc(F)c5sc(N)c(C#N)c45)c(C(F)(F)F)cc23)CCN(C(=O)OC)C1 (atropisomer, axis not shown) [Compound 800]							< 0.1	< 0.1	< 0.1	< 0.1	< 0.1	< 0.1				
CCN(c1nc(OC[C@@]23CCCN2C[C@H](F)C3)nc2c(F)c(-c3ccc(F)c4sc(N)c(C#N)c34)c(C(F)(F)F)cc12)[C@H]1CCN(C(=O)N2C[C@H]3C[C@@H]2CO3)C1 (atropisomer, axis not shown) [Compound 653]							< 0.1	< 0.1	< 0.1	< 0.1	< 0.1	< 0.1				
CCN(c1nc(OC[C@@]23CCCN2C[C@H](F)C3)nc2c(F)c(-c3ccc(F)c4sc(N)c(C#N)c34)c(C(F)(F)F)cc12)[C@H]1CCN(C(=O)OC)[C@@H]1C (atropisomer, axis not shown) [Compound 688]							< 0.1	0.1 to 1	< 0.1	< 0.1	< 0.1	0.1 to 1				
CCN(c1nc(OC[C@@]23CCCN2C[C@H](F)C3)nc2c(F)c(-c3ccc(F)c4sc(N)c(C#N)c34)c(C(F)(F)F)cc12)[C@H]1C[C@H]2CCN(C)C(=O)N2C1 (atropisomer, axis not shown) [Compound 666]							< 0.1	< 0.1	< 0.1	< 0.1	< 0.1	< 0.1				
